Reference: the supplement of paper PMC10307832

Columns and labels:
Assay in all cases: relative viability (nuclei count vs DMSO), 5 days (fraction); higher = more cells survive
[1] = test system: CAL-12T
How it was run: (§1)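 Relative viability equals treated-well nuclei counts divided by vehicle-well nuclei counts. Counts came from 4× images of lung cancer cell lines grown in 1536-well plates for 5 days after pin-tool dosing on the day after seeding. Dosing used one drug alone or a fixed anchor-drug dose plus five library-drug doses (not always all listed) in √10 steps, and values are medians of duplicate plates.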

[2] = test system: COR-L 105
How it was run: as §1

[3] = test system: H3255
How it was run: as §1

[4] = test system: HARA
How it was run: as §1

[5] = test system: HCC-15
How it was run: as §1

[6] = test system: HCC-366
How it was run: as §1

[7] = test system: LC-2-ad
How it was run: as §1

[8] = test system: LU99A
How it was run: as §1

[9] = test system: NCI-H1395
How it was run: as §1

[10] = test system: NCI-H1666
How it was run: as §1

[11] = test system: NCI-H1734
How it was run: as §1

[12] = test system: NCI-H1944
How it was run: as §1

[13] = test system: NCI-H1975
How it was run: as §1

[14] = test system: NCI-H1993
How it was run: as §1

[15] = test system: NCI-H2228
How it was run: as §1

[16] = test system: NCI-H3122
How it was run: as §1

[17] = test system: NCI-H520
How it was run: as §1

[18] = test system: NCI-H647
How it was run: as §1

[19] = test system: NCI-H661
How it was run: as §1

[20] = test system: NCI-H838
How it was run: as §1

[21] = test system: PC-14
How it was run: as §1

[22] = test system: PC-3 [JPC-3]
How it was run: as §1

[23] = test system: SK-LU-1
How it was run: as §1

Compound O=c1[nH]c2ccccc2n1C1CCN(CCCC(c2ccc(F)cc2)c2ccc(F)cc2)CC1 [Pimozide] + C[C@]1(O)C[C@@H](c2nc(-c3ccc4ccc(-c5ccccc5)nc4c3)c3c(N)nccn32)C1 [Linsitinib] (partner 1 µM) has a relative viability ([1]; first compound 0.08 µM) of 0.745, a relative viability ([1]; first compound 0.253 µM) of 0.803 and a relative viability ([1]; first compound 0.8 µM) of 0.936. It also gave a relative viability ([1]; first compound 2.53 µM) of 0.755, a relative viability ([1]; first compound 8 µM) of 0.788 and a relative viability ([2]; first compound 0.253 µM) of 1.01. The relative viability ([2]; first compound 0.8 µM) was 0.795, the relative viability ([2]; first compound 2.53 µM) was 0.844 and the relative viability ([2]; first compound 8 µM) was 0.562. It also gave a relative viability ([3]; first compound 0.253 µM) of 0.905, a relative viability ([3]; first compound 0.8 µM) of 0.96 and a relative viability ([3]; first compound 2.53 µM) of 0.959. For the same compound, the relative viability ([3]; first compound 8 µM) was 0.903, the relative viability ([4]; first compound 0.08 µM) was 0.944 and the relative viability ([4]; first compound 0.253 µM) was 0.981. It also gave a relative viability ([4]; first compound 0.8 µM) of 0.823, a relative viability ([4]; first compound 2.53 µM) of 0.92 and a relative viability ([4]; first compound 8 µM) of 0.748. It also gave a relative viability ([5]; first compound 0.08 µM) of 0.91, a relative viability ([5]; first compound 0.253 µM) of 0.911 and a relative viability ([5]; first compound 0.8 µM) of 0.847. It also gave a relative viability ([5]; first compound 2.53 µM) of 0.744, a relative viability ([5]; first compound 8 µM) of 0.796 and a relative viability ([6]; first compound 0.08 µM) of 0.747. The relative viability ([6]; first compound 0.253 µM) was 0.67, the relative viability ([6]; first compound 0.8 µM) was 0.7 and the relative viability ([6]; first compound 2.53 µM) was 0.754. It also gave a relative viability ([6]; first compound 8 µM) of 0.677, a relative viability ([7]; first compound 0.08 µM) of 0.818 and a relative viability ([7]; first compound 0.253 µM) of 0.819. For the same compound, the relative viability ([7]; first compound 0.8 µM) was 0.797, the relative viability ([7]; first compound 2.53 µM) was 0.891 and the relative viability ([7]; first compound 8 µM) was 0.746. The relative viability ([8]; first compound 0.08 µM) was 0.544, the relative viability ([8]; first compound 0.253 µM) was 0.409 and the relative viability ([8]; first compound 0.8 µM) was 0.514. The relative viability ([8]; first compound 2.53 µM) was 0.596, the relative viability ([8]; first compound 8 µM) was 0.504 and the relative viability ([9]; first compound 0.08 µM) was 1.12. The relative viability ([9]; first compound 0.253 µM) was 1.07, the relative viability ([9]; first compound 0.8 µM) was 1.07 and the relative viability ([9]; first compound 2.53 µM) was 1.35. The relative viability ([9]; first compound 8 µM) was 1.09, the relative viability ([10]; first compound 0.08 µM) was 0.786 and the relative viability ([10]; first compound 0.253 µM) was 0.723. The relative viability ([10]; first compound 0.8 µM) was 0.711, the relative viability ([10]; first compound 2.53 µM) was 0.73 and the relative viability ([10]; first compound 8 µM) was 0.635. For the same compound, the relative viability ([11]; first compound 0.08 µM) was 0.88, the relative viability ([11]; first compound 0.253 µM) was 0.829 and the relative viability ([11]; first compound 0.8 µM) was 0.878. It also gave a relative viability ([11]; first compound 2.53 µM) of 0.944, a relative viability ([11]; first compound 8 µM) of 0.972 and a relative viability ([12]; first compound 0.08 µM) of 1.02. It also gave a relative viability ([12]; first compound 0.253 µM) of 1.07, a relative viability ([12]; first compound 0.8 µM) of 1.05 and a relative viability ([12]; first compound 2.53 µM) of 1.3. The relative viability ([12]; first compound 8 µM) was 1.22, the relative viability ([13]; first compound 0.08 µM) was 0.95 and the relative viability ([13]; first compound 0.253 µM) was 1.04. It also gave a relative viability ([13]; first compound 0.8 µM) of 0.964, a relative viability ([13]; first compound 2.53 µM) of 0.926 and a relative viability ([13]; first compound 8 µM) of 0.741. For the same compound, the relative viability ([14]; first compound 0.08 µM) was 0.662, the relative viability ([14]; first compound 0.253 µM) was 0.659 and the relative viability ([14]; first compound 0.8 µM) was 0.571. It also gave a relative viability ([14]; first compound 2.53 µM) of 0.725, a relative viability ([14]; first compound 8 µM) of 0.755 and a relative viability ([15]; first compound 0.08 µM) of 0.475. It also gave a relative viability ([15]; first compound 0.253 µM) of 0.909, a relative viability ([15]; first compound 0.8 µM) of 0.404 and a relative viability ([15]; first compound 2.53 µM) of 0.392. The relative viability ([15]; first compound 8 µM) was 0.291, the relative viability ([16]; first compound 0.08 µM) was 1.01 and the relative viability ([16]; first compound 0.253 µM) was 1.06. For the same compound, the relative viability ([16]; first compound 0.8 µM) was 1, the relative viability ([16]; first compound 2.53 µM) was 1.05 and the relative viability ([16]; first compound 8 µM) was 1.06. The relative viability ([17]; first compound 0.08 µM) was 0.894, the relative viability ([17]; first compound 0.253 µM) was 1 and the relative viability ([17]; first compound 0.8 µM) was 1.01. It also gave a relative viability ([17]; first compound 2.53 µM) of 0.995, a relative viability ([17]; first compound 8 µM) of 0.937 and a relative viability ([18]; first compound 0.08 µM) of 1.16. It also gave a relative viability ([18]; first compound 0.253 µM) of 1.06, a relative viability ([18]; first compound 0.8 µM) of 1.1 and a relative viability ([18]; first compound 2.53 µM) of 1.17. It also gave a relative viability ([18]; first compound 8 µM) of 0.779, a relative viability ([19]; first compound 0.08 µM) of 0.659 and a relative viability ([19]; first compound 0.253 µM) of 0.422. It also gave a relative viability ([19]; first compound 0.8 µM) of 0.557, a relative viability ([19]; first compound 2.53 µM) of 0.513 and a relative viability ([19]; first compound 8 µM) of 0.536. For the same compound, the relative viability ([20]; first compound 0.08 µM) was 1.01, the relative viability ([20]; first compound 0.253 µM) was 0.999 and the relative viability ([20]; first compound 0.8 µM) was 0.885. It also gave a relative viability ([20]; first compound 2.53 µM) of 1.01, a relative viability ([20]; first compound 8 µM) of 1.04 and a relative viability ([21]; first compound 0.253 µM) of 0.94. For the same compound, the relative viability ([21]; first compound 0.8 µM) was 0.99, the relative viability ([21]; first compound 2.53 µM) was 0.938 and the relative viability ([21]; first compound 8 µM) was 0.91. For the same compound, the relative viability ([22]; first compound 0.253 µM) was 0.985, the relative viability ([22]; first compound 0.8 µM) was 0.896 and the relative viability ([22]; first compound 2.53 µM) was 0.983. For the same compound, the relative viability ([22]; first compound 8 µM) was 0.883, the relative viability ([23]; first compound 0.08 µM) was 1.11 and the relative viability ([23]; first compound 0.253 µM) was 1.12. It also gave a relative viability ([23]; first compound 0.8 µM) of 0.902, a relative viability ([23]; first compound 2.53 µM) of 0.732 and a relative viability ([23]; first compound 8 µM) of 0.851.
